These results are taken from ChEMBL document CHEMBL3132825, “Preparation of phenylethylbenzamide derivatives as modulators of DNMT3 activity” (Medchemcomm, 2013).

Series [1] has as its target Histone-lysine N-methyltransferase, H3 lysine-79 specific (Homo sapiens) (UniProt Q8TEK3). In words: Inhibition of DOT1L (unknown origin) using [methyl-3H]SAM and biotinylated nucleosome PRC2 and H3K27Me3 activator peptide up to 80 uM by [3H]methyl group incorporation assay.
The target of series [2] is DNA (cytosine-5)-methyltransferase 1 (Homo sapiens) (UniProt P26358). Description: Inhibition of human DNMT1 using [methyl-3H]SAM and biotinylated hemimethylated DNA duplex at 100 uM by [3H]methyl group incorporation assay.
Sequence of DNA (cytosine-5)-methyltransferase 1 (Homo sapiens) (P26358 whole entry): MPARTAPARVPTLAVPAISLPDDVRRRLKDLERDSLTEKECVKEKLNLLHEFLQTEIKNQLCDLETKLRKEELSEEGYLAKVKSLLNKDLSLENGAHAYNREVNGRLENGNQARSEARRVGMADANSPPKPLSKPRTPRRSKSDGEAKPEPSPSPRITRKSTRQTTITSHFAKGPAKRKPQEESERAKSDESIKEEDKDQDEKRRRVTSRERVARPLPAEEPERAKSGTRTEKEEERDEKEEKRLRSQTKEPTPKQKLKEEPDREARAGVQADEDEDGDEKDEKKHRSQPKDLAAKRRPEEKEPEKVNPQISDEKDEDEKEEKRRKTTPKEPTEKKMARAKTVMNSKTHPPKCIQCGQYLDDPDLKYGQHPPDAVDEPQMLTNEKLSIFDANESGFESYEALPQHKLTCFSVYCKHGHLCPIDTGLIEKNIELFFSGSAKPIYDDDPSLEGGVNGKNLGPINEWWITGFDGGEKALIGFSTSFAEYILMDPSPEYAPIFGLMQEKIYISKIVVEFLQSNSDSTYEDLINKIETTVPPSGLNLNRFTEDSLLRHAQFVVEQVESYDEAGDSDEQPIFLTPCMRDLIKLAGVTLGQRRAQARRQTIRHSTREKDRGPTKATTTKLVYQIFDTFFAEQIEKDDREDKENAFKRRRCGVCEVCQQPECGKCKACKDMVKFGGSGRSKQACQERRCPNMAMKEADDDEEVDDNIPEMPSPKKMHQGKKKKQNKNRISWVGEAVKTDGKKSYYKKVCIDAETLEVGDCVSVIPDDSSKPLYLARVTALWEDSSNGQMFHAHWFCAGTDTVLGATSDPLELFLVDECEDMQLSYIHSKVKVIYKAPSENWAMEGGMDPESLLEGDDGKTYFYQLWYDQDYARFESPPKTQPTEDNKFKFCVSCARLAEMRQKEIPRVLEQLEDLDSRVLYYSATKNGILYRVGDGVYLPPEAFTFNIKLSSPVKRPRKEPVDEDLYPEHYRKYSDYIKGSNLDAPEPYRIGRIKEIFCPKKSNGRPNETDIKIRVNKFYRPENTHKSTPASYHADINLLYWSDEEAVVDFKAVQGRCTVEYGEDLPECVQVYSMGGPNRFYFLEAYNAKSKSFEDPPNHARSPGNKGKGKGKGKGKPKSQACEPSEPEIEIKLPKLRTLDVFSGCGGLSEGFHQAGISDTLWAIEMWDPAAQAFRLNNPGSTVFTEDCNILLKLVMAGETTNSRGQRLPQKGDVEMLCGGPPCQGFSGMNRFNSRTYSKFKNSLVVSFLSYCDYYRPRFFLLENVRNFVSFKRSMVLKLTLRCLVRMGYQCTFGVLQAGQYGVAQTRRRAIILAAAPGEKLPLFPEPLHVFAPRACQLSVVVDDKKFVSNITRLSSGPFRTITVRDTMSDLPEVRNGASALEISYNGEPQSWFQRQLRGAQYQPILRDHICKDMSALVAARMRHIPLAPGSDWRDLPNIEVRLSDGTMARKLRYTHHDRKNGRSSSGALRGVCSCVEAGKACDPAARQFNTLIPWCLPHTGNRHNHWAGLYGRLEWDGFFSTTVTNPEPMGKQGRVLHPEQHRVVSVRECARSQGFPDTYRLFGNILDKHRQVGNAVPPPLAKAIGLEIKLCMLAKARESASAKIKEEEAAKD
Series [3] addresses Histone-lysine N-methyltransferase EZH2 (Homo sapiens) (UniProt Q15910). In words: Inhibition of EZH2 (unknown origin) using [methyl-3H]SAM and biotinylated nucleosome PRC2 and H3K27Me3 activator peptide up to 80 uM by [3H]methyl group incorporation assay.
Series [4] deals with MDA-MB-231. In words: Inhibition of DNMT in human MDA-MB-231 cells assessed as reduction in methylation level at 1 uM by luminometric methylation assay. Format: cell-based.
The target of series [5] is T1, DNA (cytosine-5)-methyltransferase 3A (Homo sapiens, UniProt Q9Y6K1). Description: Inhibition of human DNMT3A catalytic domain (623 to 912 amino acids) at 100 uM after 1 hr by fluorescence assay.
T1 sequence (Q9Y6K1 whole entry, looked up, the tested form may be a part): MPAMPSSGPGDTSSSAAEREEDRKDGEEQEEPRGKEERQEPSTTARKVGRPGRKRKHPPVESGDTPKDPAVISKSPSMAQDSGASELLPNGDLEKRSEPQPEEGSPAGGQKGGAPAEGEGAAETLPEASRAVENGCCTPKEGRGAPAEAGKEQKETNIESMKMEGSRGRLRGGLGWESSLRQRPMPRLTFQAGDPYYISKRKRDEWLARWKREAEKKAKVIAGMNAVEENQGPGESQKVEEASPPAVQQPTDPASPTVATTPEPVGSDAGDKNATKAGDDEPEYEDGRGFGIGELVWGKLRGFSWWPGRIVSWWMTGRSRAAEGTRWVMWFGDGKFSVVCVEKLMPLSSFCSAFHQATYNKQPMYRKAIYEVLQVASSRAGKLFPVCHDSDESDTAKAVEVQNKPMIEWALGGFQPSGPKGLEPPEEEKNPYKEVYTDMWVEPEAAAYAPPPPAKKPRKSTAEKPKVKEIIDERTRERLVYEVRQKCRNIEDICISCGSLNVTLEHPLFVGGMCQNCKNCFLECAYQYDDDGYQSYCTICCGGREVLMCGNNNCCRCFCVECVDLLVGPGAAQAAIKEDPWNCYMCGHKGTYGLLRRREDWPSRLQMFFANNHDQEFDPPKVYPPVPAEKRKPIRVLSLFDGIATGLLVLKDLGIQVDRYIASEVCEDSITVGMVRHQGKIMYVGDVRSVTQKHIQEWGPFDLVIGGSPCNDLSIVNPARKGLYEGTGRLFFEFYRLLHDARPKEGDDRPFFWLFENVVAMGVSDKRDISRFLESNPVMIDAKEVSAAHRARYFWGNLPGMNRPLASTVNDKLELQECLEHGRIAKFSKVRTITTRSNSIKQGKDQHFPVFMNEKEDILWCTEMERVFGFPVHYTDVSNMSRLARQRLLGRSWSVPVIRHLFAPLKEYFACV
The target of series [6] is T1, DNA (cytosine-5)-methyltransferase 3A. In words: Inhibition of human DNMT3A catalytic domain (623 to 912 amino acids) at 10 uM after 1 hr by fluorescence assay.
In series [7] the test system is MDA-MB-231. Description: Toxicity against human MDA-MB-231 cells. Type of series: cell-based.
The target in series [8] is DNA (cytosine-5)-methyltransferase 1 (Homo sapiens) (UniProt P26358). Description: Inhibition of human DNMT1 using [methyl-3H]SAM and biotinylated hemimethylated DNA duplex at 50 to 200 uM by [3H]methyl group incorporation assay.
Series [9] concerns MDA-MB-231. Description: Inhibition of DNMT in human MDA-MB-231 cells assessed as reduction in methylation level at 100 uM by luminometric methylation assay. Format: cell-based.
The subject of series [10] is MDA-MB-231. Description: Inhibition of DNMT in human MDA-MB-231 cells assessed as reduction in methylation level at 200 uM by luminometric methylation assay. Format: cell-based.
Series [11] concerns the target T1, DNA (cytosine-5)-methyltransferase 3A. In words: Inhibition of human DNMT3A catalytic domain (623 to 912 amino acids) after 1 hr by fluorescence assay.

Calls of active or inactive are those of the source. The rule behind the calls is not given here.

Sequence of Histone-lysine N-methyltransferase EZH2 (Homo sapiens) (Q15910 whole entry, looked up): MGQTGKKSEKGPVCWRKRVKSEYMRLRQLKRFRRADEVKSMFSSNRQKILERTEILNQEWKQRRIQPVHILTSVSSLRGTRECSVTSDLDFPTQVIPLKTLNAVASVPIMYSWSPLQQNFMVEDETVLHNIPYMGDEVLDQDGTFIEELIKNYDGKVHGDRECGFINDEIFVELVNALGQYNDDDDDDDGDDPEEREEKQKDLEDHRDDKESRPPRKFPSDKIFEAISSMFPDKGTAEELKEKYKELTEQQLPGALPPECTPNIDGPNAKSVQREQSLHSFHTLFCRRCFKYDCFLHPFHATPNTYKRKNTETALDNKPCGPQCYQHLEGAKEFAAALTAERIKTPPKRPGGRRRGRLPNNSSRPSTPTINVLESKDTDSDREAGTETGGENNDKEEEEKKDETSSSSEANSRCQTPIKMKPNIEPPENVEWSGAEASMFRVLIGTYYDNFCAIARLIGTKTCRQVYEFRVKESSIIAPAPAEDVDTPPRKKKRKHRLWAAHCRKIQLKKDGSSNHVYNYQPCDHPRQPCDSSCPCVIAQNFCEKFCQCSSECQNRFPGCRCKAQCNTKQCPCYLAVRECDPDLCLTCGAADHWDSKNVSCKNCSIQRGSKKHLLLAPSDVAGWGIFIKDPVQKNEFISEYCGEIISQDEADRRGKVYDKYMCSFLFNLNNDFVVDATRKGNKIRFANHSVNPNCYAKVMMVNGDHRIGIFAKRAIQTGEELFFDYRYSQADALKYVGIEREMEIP
Sequence of Histone-lysine N-methyltransferase, H3 lysine-79 specific (Homo sapiens) (Q8TEK3 whole entry, looked up): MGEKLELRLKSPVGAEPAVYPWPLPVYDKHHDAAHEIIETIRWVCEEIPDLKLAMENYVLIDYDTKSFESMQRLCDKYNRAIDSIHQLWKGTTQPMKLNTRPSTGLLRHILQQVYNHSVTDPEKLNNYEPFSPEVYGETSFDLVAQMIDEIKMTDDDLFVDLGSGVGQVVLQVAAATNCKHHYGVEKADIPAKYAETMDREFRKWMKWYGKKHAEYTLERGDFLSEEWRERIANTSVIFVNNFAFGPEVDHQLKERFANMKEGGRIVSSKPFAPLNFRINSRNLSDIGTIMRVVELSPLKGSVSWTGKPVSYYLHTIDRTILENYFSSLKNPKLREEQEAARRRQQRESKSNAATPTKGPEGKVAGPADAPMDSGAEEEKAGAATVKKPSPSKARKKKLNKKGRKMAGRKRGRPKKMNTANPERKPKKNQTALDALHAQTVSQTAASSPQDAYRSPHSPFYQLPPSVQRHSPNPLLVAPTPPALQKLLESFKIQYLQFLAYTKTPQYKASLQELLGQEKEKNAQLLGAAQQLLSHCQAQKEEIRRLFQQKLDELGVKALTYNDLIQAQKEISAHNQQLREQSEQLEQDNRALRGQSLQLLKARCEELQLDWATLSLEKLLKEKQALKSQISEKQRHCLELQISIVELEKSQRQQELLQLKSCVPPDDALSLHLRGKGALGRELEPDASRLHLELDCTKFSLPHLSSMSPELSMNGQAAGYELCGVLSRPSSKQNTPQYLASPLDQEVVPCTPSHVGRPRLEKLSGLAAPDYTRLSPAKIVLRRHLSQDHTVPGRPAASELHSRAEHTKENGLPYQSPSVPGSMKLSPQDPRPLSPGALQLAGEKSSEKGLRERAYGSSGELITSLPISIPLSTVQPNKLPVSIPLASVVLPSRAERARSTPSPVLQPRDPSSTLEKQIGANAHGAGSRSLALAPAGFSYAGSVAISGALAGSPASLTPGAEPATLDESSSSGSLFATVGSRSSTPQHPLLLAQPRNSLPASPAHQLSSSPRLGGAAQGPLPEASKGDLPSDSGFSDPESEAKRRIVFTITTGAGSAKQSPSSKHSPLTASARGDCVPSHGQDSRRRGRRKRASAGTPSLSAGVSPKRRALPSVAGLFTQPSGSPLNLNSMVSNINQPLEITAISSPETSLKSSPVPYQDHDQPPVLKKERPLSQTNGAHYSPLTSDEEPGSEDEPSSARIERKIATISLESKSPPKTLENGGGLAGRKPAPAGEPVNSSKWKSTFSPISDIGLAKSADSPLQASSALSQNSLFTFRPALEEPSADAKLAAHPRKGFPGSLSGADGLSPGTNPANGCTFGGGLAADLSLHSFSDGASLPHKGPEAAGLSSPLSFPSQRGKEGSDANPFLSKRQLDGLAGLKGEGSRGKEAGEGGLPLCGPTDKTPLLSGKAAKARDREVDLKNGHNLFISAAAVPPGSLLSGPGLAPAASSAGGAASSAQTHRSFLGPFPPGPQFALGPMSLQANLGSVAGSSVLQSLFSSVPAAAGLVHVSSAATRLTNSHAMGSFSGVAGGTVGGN

For `COc1ccc(Cl)cc1C(=O)NCCc1ccc(CCC(N)=O)cc1`, the inhibition result in series [1] and in series [3] was “inactive” in each case. The inhibition in [2] is under 20%.

Regarding `COc1ccc(Cl)cc1NC(=O)CCc1ccc(CCC(=O)O)cc1`, the inhibition entry in series [1] and in series [3] was “inactive” throughout. Also, the inhibition in series [2] was under 20%.

In the case of `COc1ccc(Cl)cc1C(=O)NCCc1cccc(CCC(=O)O)c1`, the inhibition entry in series [1] and in series [3] was “inactive” in each case. Moreover, the inhibition in series [2] is under 20%.

As for `Nc1ncn([C@@H]2O[C@H](CO)[C@@H](O)[C@H]2O)c(=O)n1`, the inhibition result with MDA-MB-231 [4] was “Active”.

Consider `COc1ccc(Cl)cc1C(=O)NCCc1ccc(CCC(=O)N(C)C)cc1`, for which the inhibition entry in [1] and in series [3] was “inactive” each time. In series [2], this compound came in with an inhibition of under 20%.

Take `COc1ccc(Cl)cc1C(=O)NCCc1ccc(CCCO)cc1`: the inhibition entry in series [1] and in series [3] was “inactive” in each case. Further, the inhibition in series [2] is under 20%.

Turning to `COc1ccc(Cl)cc1C(=O)NCCc1ccc(C(=O)O)cc1`, the inhibition entry in series [1] and in series [3] was “inactive” each time. In series [2], this compound registered an inhibition of under 20%.

Regarding `COc1ccc(Cl)cc1CNCCc1ccc(CCC(=O)O)cc1`, the inhibition result in [1] and in [3] was “inactive” in each case. In series [2], this compound yielded an inhibition of under 20%.

`CCc1ccc(CCNC(=O)c2cc(Cl)ccc2OC)cc1`: the inhibition result in series [1] and in series [3] was “inactive” in each case. In [2], this compound displayed an inhibition of under 20%.

As to `COc1ccc(Cl)cc1C(=O)Nc1ccc(CCC(=O)O)cc1`, the inhibition result in series [1] and in series [3] was “inactive” throughout. The figures for the inhibition in [5], in series [6] and in [2] were over 60%, over 13% and under 20%, respectively.

As for `COc1ccc(Cl)cc1C(=O)NCCc1ccccc1`, the inhibition entry in [1] and in series [3] was “inactive” in each case. In [2], this compound registered an inhibition of under 20%.

For `COc1ccc(Cl)cc1C(=O)NCCc1ccc(CCC(=O)N2CCOCC2)cc1`, the inhibition result in series [1] and in series [3] was “inactive” each time. The compound also gave an inhibition in [2] of under 20%.

Take `O=C(O)CCc1ccc(CCNC(=O)c2ccc([N+](=O)[O-])cc2)cc1`: the inhibition result in series [1] and in series [3] was “inactive” in each case. Further, the figures for the inhibition in [5], in series [6] and in series [2] were over 60%, over 13% and 14%, respectively. Besides, the Activity entry in the series on MDA-MB-231 [7] is recorded as “Toxic”.

For the compound `COc1cccc(C(=O)NCCc2ccc(CCC(=O)O)cc2)c1`, the inhibition result in series [1] and in series [3] was “inactive” in each case. Moreover, the inhibition in series [2] is under 20%.

Consider `O=C(O)CCc1ccc(CCNC(=O)c2ccccc2F)cc1`, for which the inhibition entry in series [1] and in series [3] was “inactive” in each case. Further, in series [2], the inhibition is under 20%.

Take `CNC(=O)CCc1ccc(CCNC(=O)c2cc(Cl)ccc2OC)cc1`: the inhibition result in [1] and in series [3] was “inactive” throughout. In addition, the inhibition in series [2] is under 20%.

For the compound `O=C(O)CCc1ccc(CCNC(=O)c2cccc(Cl)c2)cc1`, the inhibition result in series [1] and in series [3] was “inactive” throughout. The compound also showed an inhibition in series [2] of under 20%.

Turning to `O=C(O)CCc1ccc(CCNC(=O)c2cc(C(F)(F)F)ccc2Cl)cc1`, the inhibition entry in series [1], in series [6] and in [3] was “inactive” throughout. In addition, the results for the inhibition in series [5] and in [2] were over 60% and under 20%, respectively. For the same compound, the Activity result in the series on MDA-MB-231 [7] is reported as “Toxic”.

Consider `O=C(O)CCc1ccc(CCNC(=O)c2ccccc2Br)cc1`, for which the inhibition result in [1] and in [3] was “inactive” each time. For the same compound, in [2], the inhibition was under 20%.

Regarding `COc1ccc(Cl)cc1C(=O)NCCc1ccc(C(C)CC(=O)O)cc1` (stereo not drawn), the inhibition result in series [1] and in series [3] was “inactive” throughout. Moreover, in series [2], the inhibition is under 20%.

Take `COc1ccc(Cl)cc1C(=O)NCCc1ccc(CC(=O)O)cc1`: the inhibition entry in [1] and in [3] was “inactive” throughout. For the same compound, the inhibition in [2] is under 20%.

Take `O=C(O)CCc1ccc(CCNC(=O)c2cccnc2)cc1`: the inhibition result in [1] and in [3] was “inactive” each time. In [2], this compound displayed an inhibition of under 20%.

Take `COc1ccc(Cl)cc1C(=O)N(C)CCc1ccc(CCC(=O)O)cc1`: the inhibition entry in [1] and in [3] was “inactive” throughout. The compound further showed an inhibition in series [2] of under 20%.

Take `COc1ccc(Cl)cc1C(=O)NCCc1ccc(CC(C)C(=O)O)cc1` (stereo not drawn): the inhibition entry in series [1] and in [3] was “inactive” throughout. The inhibition in [2] was under 20%.

For `COc1ccc(Cl)cc1C(=O)NCCc1ccc(CCC(=O)O)cc1`, the inhibition result in series [1], in [5], in series [6], in [8] and in series [3] was “inactive” in each case. Also, the inhibition in [2] worked out at 2.9%.

In the case of `COc1ccc(Cl)cc1C(=O)NCCc1ccc(OCC(=O)O)cc1`, the inhibition result (in series [1]; with MDA-MB-231 [9]; in the series on MDA-MB-231 [10]; in series [3]) was “inactive” throughout. The results for the inhibition in series [5], in [6] and in series [2] were over 60%, over 13% and 15%, respectively. Moreover, in the series on MDA-MB-231 [7], the Activity entry is reported as “Non-toxic”.

Regarding `COc1ccc(Cl)cc1C(=O)NCCc1ccc(/C=C/C(=O)O)cc1`, the inhibition entry in series [1] and in series [3] was “inactive” throughout. Moreover, in [2], the inhibition was under 20%.

Regarding `COc1ccc(Cl)cc1C(=O)NCc1ccc(CCC(=O)O)cc1`, the inhibition result in series [1] and in series [3] was “inactive” throughout. The inhibition is over 60% in series [5], over 13% in series [6] and under 20% in series [2].

As for `COc1ccc(Cl)cc1C(=O)N[C@@H](Cc1ccc(OCC(=O)O)cc1)C(=O)O`, the inhibition entry (in series [1]; in the series with MDA-MB-231 [9]; in series [3]) was “inactive” each time. Further, the inhibition in series [5] is over 60%; in series [6] it was over 13%; in [2], under 20%. For the same compound, the inhibition result in the series with MDA-MB-231 [10] was “Active”. The Activity entry with MDA-MB-231 [7] is “Non-toxic”.

Consider `O=C(O)CCc1ccc(CCNC(=O)c2cc(Cl)ccc2F)cc1`, for which the inhibition result in [1] and in series [3] was “inactive” throughout. In series [2], this compound gave an inhibition of under 20%.

Consider `COc1ccc(Cl)cc1C(=O)NCCc1ccc(O)cc1`, for which the inhibition result in series [1] and in series [3] was “inactive” in each case. For the same compound, the results for the inhibition in series [5], in series [6] and in [2] were over 60%, over 13% and 16%, respectively. A half-maximal effect in [11] (EC50) was put at 36 µM. In addition, in the series with MDA-MB-231 [7], the Activity result is “Toxic”.
